Experimental data reported in patent publication US20250281485A1, “DIAGNOSIS AND/OR TREATMENT OF HEART FAILURE WITH PRESERVED EJECTION FRACTION” (UNIVERSITEIT MAASTRICHT, priority 2022, published 2025).
Where two headings read alike, the source gives them in different places.

Tests used:
[1] = biological target: T1, sGC (Homo sapiens, UniProt Q02108+Q02153); test: pVASP/VASP concentration response in fresh P-WBC, sGC stimulator; assay type: cell-based
T1 construct: P-WBC is isolated after a 800g centrifugation and treated with sGCs or sGCa; endogenous in cells; host or cells: fresh human platelet-enriched white-blood-cell fraction (P-WBC) from healthy volunteers
T1 sequence (Q02153 1-619): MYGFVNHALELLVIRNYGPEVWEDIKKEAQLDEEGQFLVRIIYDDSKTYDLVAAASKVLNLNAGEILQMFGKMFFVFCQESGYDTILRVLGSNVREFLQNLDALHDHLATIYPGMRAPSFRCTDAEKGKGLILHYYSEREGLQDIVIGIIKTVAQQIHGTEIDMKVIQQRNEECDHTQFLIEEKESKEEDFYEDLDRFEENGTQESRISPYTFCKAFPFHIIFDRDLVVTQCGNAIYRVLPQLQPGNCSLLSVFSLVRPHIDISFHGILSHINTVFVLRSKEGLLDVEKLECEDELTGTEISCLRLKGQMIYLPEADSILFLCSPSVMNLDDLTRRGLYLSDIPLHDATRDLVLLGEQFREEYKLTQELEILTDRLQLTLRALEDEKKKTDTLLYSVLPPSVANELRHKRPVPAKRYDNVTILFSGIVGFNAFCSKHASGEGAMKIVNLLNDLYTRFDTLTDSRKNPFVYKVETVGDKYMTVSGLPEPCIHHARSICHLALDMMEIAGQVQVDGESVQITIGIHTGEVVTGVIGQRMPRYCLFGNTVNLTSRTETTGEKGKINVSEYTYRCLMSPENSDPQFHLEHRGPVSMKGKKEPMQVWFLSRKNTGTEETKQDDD
T1 sequence (Q02108 1-690): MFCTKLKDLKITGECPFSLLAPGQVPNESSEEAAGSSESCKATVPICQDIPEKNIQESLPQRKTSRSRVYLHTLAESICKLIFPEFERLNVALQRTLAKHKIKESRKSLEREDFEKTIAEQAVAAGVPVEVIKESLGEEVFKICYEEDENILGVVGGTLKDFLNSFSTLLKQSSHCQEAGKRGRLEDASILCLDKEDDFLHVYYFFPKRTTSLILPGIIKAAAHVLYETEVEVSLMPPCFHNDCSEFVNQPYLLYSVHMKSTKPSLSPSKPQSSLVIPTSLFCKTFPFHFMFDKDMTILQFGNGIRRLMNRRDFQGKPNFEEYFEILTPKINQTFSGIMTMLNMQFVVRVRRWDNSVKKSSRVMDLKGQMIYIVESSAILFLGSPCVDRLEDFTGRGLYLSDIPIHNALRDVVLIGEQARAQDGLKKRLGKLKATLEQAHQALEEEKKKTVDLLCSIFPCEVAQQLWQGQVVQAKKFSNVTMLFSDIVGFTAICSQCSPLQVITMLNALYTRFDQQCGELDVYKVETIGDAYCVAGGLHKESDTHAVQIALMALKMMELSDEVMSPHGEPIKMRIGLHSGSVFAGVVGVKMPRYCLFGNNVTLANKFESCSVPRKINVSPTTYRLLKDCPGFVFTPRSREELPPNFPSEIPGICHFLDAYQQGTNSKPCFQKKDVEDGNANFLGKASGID
Method: (§1) Human blood was collected from healthy volunteers after obtaining informed consent according to the Declaration of Helsinki. An ethical approval was granted by the FHML Research Ethics Committee of Maastricht University (FHML-REC/2022/055). Whole blood (WB) was collected by venipuncture in ACD-A tubes (sodium citrate: 22.0 g/L, dextrose 24.5 g/L, citric acid: 8.0 g/L). Centrifugations in various speeds (200 g, 400g, 600g, 800g) were performed for 10 minutes in 18 degrees Celsius (acceleration 1, deceleration 0). Plasma was collected and P-WBC was carefully isolated (500 μl). Cell counting was performed with the automated haematology analyzer Sysmex XP-300. Subsequently, P-WBC was diluted with the same volume of JNL-buffer (130 mM NaCl, 3 mM KCl, 9 mM NaHCO3, 0.81 mM KH2PO4, 0.9 mM MgCI2, 10 mM sodium citrate, 6 mM dextrose, 10 mM Tris base, 2 mM HEPES) pH 7.4. Thereafter, 20 μl of diluted P-WBC were further diluted 1:5 with JNL-buffer for the cell treatments. Cell suspensions were treated with BAY 41-2272 (30 μM) and BAY 58-2667 (10 μM) for 10 minutes at 37° C., and with riociguat and runcaciguat for 15 minutes; in some cases with 10 minutes pretreatment with IBMX. Samples were centrifuged for 10 minutes at 750 g. […]
(§2) All data are expressed as mean±standard error of mean (SEM) of at least three independent experiments. […]

[2] = test system: HFpEF patients; settings: JAMA 2013; cited from earlier work
[3] = biological target: T2, apo-sGC (Homo sapiens, UniProt Q02108+Q02153); test: pVASP/VASP concentration response in fresh P-WBC, sGC activator; assay type: cell-based
T2 construct: P-WBC is isolated after a 800g centrifugation and treated with sGCs or sGCa; endogenous in cells; host or cells: fresh human platelet-enriched white-blood-cell fraction (P-WBC) from healthy volunteers
T2 sequence (Q02153 1-619): T1 sequence (Q02153 1-619)
T2 sequence (Q02108 1-690): T1 sequence (Q02108 1-690)
Method: as §1, §2

[4] = test system: HFpEF patients; settings: JAMA 2020; cited from earlier work
[5] = test system: HFpEF patients; settings: JAMA 2020; cited from earlier work; remark: listed apart in the source
[6] = in the presence of 500 μM IBMX (FIG. 14D)

COC(=O)N(C)c1c(N)nc(-c2nn(Cc3ccccc3F)c3ncccc23)nc1N [riociguat, Methyl N-[4,6-Diamino-2-[1-[(2-fluorophenyl)methyl]-1H-pyrazolo[3,4-b]pyridin-3-yl]-5-pyrimidinyl]-N-methyl-carbaminate]
concentration at which pVASP response peaked [1, 6]: 100 μM | concentration of maximum effect, pVASP concentration response curve ([1]; without IBMX (FIG. 14B)): > 100 μM

CCCc1nn(C)c2c(=O)[nH]c(-c3cc(S(=O)(=O)N4CCN(C)CC4)ccc3OCC)nc12 [sildenafil]
trial outcome [2]: failure

C[C@H]([C@H](C(=O)Nc1cc([C@@H](CC(=O)O)C2CC2)ccc1Cl)c1ccc(Cl)cc1)C(F)(F)F [runcaciguat]
concentration at which pVASP response peaked [3, 6]: 1 μM | concentration of maximum effect, pVASP concentration response curve ([3]; without IBMX (FIG. 14B)): 100 μM

COC(=O)Nc1c(N)nc(-c2nn(Cc3ccccc3F)c3ncc(F)cc23)nc1N [vericiguat, methyl N-[4,6-diamino-2-[5-fluoro-1-[(2-fluorophenyl)methyl]pyrazolo[3,4-b]pyridin-3-yl]pyrimidin-5-yl]carbamate]
trial outcome [4]: failed

OC(CNc1nc(-c2cc(-c3ccon3)n(Cc3ccccc3F)n2)ncc1F)(C(F)(F)F)C(F)(F)F [Praliciguat]
trial outcome [5]: failed
